Reference: the supplement of paper PMC4862054

Experiments:
Details in all cases: incubation time: 72 h
[1] = system: BT-474; experiment: normalised viability (% of control), CellTiter-Blue; higher = more viable cells (about 100 = DMSO control)
Method: (§1)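 DSRT, CellTiter-Blue viability, 72 h incubation. Signal is normalised to DMSO and benzethonium chloride controls. Value is the normalised response at dose 3.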

[2] = system: BT-549; experiment: as above
Method: as §1

[3] = system: CAL-120; experiment: as above
Method: as §1

[4] = system: CAL-148; experiment: as above
Method: as §1

[5] = system: CAL-51; experiment: as above
Method: as §1

[6] = system: CAL-85-1; experiment: as above
Method: as §1

[7] = system: DU-4475; experiment: as above
Method: as §1

[8] = system: HCC1143; experiment: as above
Method: as §1

[9] = system: HCC1599; experiment: as above
Method: as §1

[10] = system: HCC1937; experiment: as above
Method: as §1

[11] = system: Hs578T; experiment: as above
Method: as §1

[12] = system: MDA-MB-231; experiment: as above
Method: as §1

[13] = system: MDA-MB-436; experiment: as above
Method: as §1

[14] = system: MDA-MB-453; experiment: as above
Method: as §1

[15] = system: MDA-MB-468; experiment: as above
Method: as §1

[16] = system: MFM-223; experiment: as above
Method: as §1

[17] = system: BT-474; experiment: drug sensitivity score (DSS), CellTox Green (DSS (AUC-based score)); higher = stronger drug effect (viability inhibition or cytotoxicity); extreme values may be limits of the assay
Procedure, shortened: (§2)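 For 72 h, breast cancer cell lines seeded at 20 µl suspension per well in 384-well plates were incubated with compound at 5 concentrations in 10-fold steps spanning a 10,000-fold range that differed by compound. The first reading was CellTox Green fluorescence at 485/520 nm, and the second was CellTiter-Glo luminescence after 10 min at room temperature. Both were normalised per plate to 0.1 % DMSO and a positive kill control, and the drug sensitivity score was obtained from the area under the fitted dose-response curve.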

[18] = system: CAL-148; experiment: as above
Procedure, shortened: as §2

[19] = system: CAL-51; experiment: as above
Procedure, shortened: as §2

[20] = system: DU-4475; experiment: as above
Procedure, shortened: as §2

[21] = system: HCC1143; experiment: as above
Procedure, shortened: as §2

[22] = system: HCC1599; experiment: as above
Procedure, shortened: as §2

[23] = system: HCC1937; experiment: as above
Procedure, shortened: as §2

[24] = system: Hs578T; experiment: as above
Procedure, shortened: as §2

[25] = system: MCF-10A; experiment: as above
Procedure, shortened: as §2

[26] = system: MDA-MB-231; experiment: as above
Procedure, shortened: as §2

[27] = system: MDA-MB-453; experiment: as above
Procedure, shortened: as §2

[28] = system: HDQ-P1; experiment: as above
Procedure, shortened: as §2

[29] = system: MDA-MB-468; experiment: as above
Procedure, shortened: as §2

Row | SMILES | normalised viability ([1]; 100 nM) [%] | normalised viability ([2]; 100 nM) [%] | normalised viability ([3]; 100 nM) [%] | normalised viability ([4]; 10 nM) [%] | normalised viability ([5]; 10 nM) [%] | normalised viability ([6]; 10 nM) [%] | normalised viability ([7]; 10 nM) [%] | drug sensitivity score [17] | drug sensitivity score [18] | drug sensitivity score [19] | drug sensitivity score [20] | drug sensitivity score [21] | drug sensitivity score [22] | drug sensitivity score [23] | drug sensitivity score [24] | drug sensitivity score [25] | drug sensitivity score [26] | drug sensitivity score [27] | drug sensitivity score [28] | drug sensitivity score [29] | further results
1 | CC[C@H](CO)Nc1nc(NCc2ccccc2)c2ncn(C(C)C)c2n1 [Roscovitine] | 94.9 | 98.5 | 82.7 | 88.8 | 104 | 101 | 104 | – | – | – | – | – | – | – | – | – | – | – | – | – | normalised viability ([8]; 100 nM): 83.4%; normalised viability ([9]; 100 nM): 116%; normalised viability ([10]; 100 nM): 97.3%; normalised viability ([11]; 100 nM): 91.1%; normalised viability ([12]; 100 nM): 88.5%; normalised viability ([13]; 100 nM): 96.5%; normalised viability ([14]; 10 nM): 106%; normalised viability ([15]; 100 nM): 108%; normalised viability ([16]; 100 nM): 89%
2 | CCNC(=O)CCC/C=C\C[C@@H]1[C@@H](/C=C/[C@@H](O)CCc2ccccc2)[C@H](O)C[C@@H]1O [Bimatoprost] | – | – | – | – | – | – | – | 0 | 0 | 0 | 0 | 0 | 0 | 0 | 2.06 | 0 | 0 | 0 | – | – | normalised viability ([1]; 55 nM): 126%; normalised viability ([2]; 55 nM): 98.7%; normalised viability ([3]; 55 nM): 95.4%; normalised viability ([4]; 5.5 nM): 90.1%; normalised viability ([5]; 5.5 nM): 113%; normalised viability ([6]; 5.5 nM): 104%; normalised viability ([7]; 5.5 nM): 120%; normalised viability ([8]; 55 nM): 100%; normalised viability ([9]; 55 nM): 123%; normalised viability ([10]; 55 nM): 102%; normalised viability ([11]; 55 nM): 80.7%; normalised viability ([12]; 55 nM): 96.8%; normalised viability ([13]; 55 nM): 115%; normalised viability ([14]; 5.5 nM): 105%; normalised viability ([15]; 55 nM): 106%; normalised viability ([16]; 55 nM): 108%
3 | COc1c2occc2cc2ccc(=O)oc12 [Methoxsalen] | 115 | 109 | 106 | 99.5 | 105 | 100 | 95.5 | – | – | – | – | – | – | – | – | – | – | – | – | – | normalised viability ([8]; 100 nM): 106%; normalised viability ([9]; 100 nM): 104%; normalised viability ([10]; 100 nM): 104%; normalised viability ([11]; 100 nM): 102%; normalised viability ([12]; 100 nM): 100%; normalised viability ([13]; 100 nM): 103%; normalised viability ([14]; 10 nM): 95.2%; normalised viability ([15]; 100 nM): 104%; normalised viability ([16]; 100 nM): 92.9%
4 | CCn1c(C(=O)N(C2CC2)C2CC2)cc2c3c(ncn3C)c(Nc3cc(C)n(C)n3)nc21 | – | – | – | – | – | – | – | 0 | 0 | 0 | 0 | 1.62 | 0 | 3.5 | 0 | 0 | 0 | 0 | 0 | 1.81 | –
5 | O=[N+]([O-])c1ccc2c(c1)S(=O)(=O)C=C2 [Stattic] | – | – | – | – | – | – | – | 15.9 | 9.88 | 16.9 | 0 | 6.3 | 0 | 25 | 18.1 | 19.5 | 11.6 | 2.97 | 2.09 | 19.8 | –
6 | C=CCN(/C=C1/C(=O)O[C@H](COC)[C@@]2(C)C1=C(O)C(=O)C1=C2[C@H](OC(C)=O)C[C@]2(C)C(=O)CC[C@@H]12)CC=C [Sonolisib] | – | – | – | – | – | – | – | 0 | 0 | 0 | 0 | 0 | 0 | 0 | 0 | 0 | 0 | 0 | 0 | – | –
7 | O=C(O)CNC(=O)c1c(O)c2ccccc2n(Cc2ccccc2)c1=O [IOX-2] | – | – | – | – | – | – | – | 0 | 0 | 0 | 0 | 0 | 0 | 0 | 0 | 0 | 0 | 1.5 | 3.99 | 0 | –
8 | CC1(COc2ccc3c(c2)ncn3-c2ccc3cccc(N4CCC(N)CC4)c3n2)COC1 [Crenolanib] | – | – | – | – | – | – | – | 5.99 | 6.78 | 4.42 | 0.612 | 1.14 | 0 | 0 | 0 | 5.3 | 6.39 | 0 | 7.06 | 0 | –
9 | C=CCN(/C=C1/C(=O)O[C@H](COC)[C@@]2(C)C1=C(O)C(=O)C1=C2[C@H](OC(C)=O)C[C@]2(C)C(=O)CC[C@@H]12)CC=C [PX-866] | 118 | 98.4 | 108 | 100 | 110 | 104 | 97 | – | – | – | – | – | – | – | – | – | – | – | – | – | normalised viability ([8]; 100 nM): 99.2%; normalised viability ([9]; 100 nM): 112%; normalised viability ([10]; 100 nM): 99%; normalised viability ([11]; 100 nM): 81%; normalised viability ([12]; 100 nM): 97.8%; normalised viability ([13]; 100 nM): 102%; normalised viability ([14]; 10 nM): 99.3%; normalised viability ([15]; 100 nM): 90.2%; normalised viability ([16]; 100 nM): 95.2%
10 | CN[C@@H](C)C(=O)N[C@H]1CN(C(=O)CC(C)C)CC[C@H]2CC[C@@H](C(=O)NC(c3ccccc3)c3ccccc3)N2C1=O [AT-406] | – | – | – | – | – | – | – | 0.17 | – | 0 | 0 | 0 | 0 | 0 | 0 | 0 | 25.5 | 0 | 4.26 | 0 | –
